The results in this text go back to patent US10294202B2, “Pyrrolidinones as herbicides” (FMC Corporation, priority 2013, dated 2019).

Common to all, as to test: Test D pre-/postemergence herbicide test
The test system of one experiment is windgrass. Format: in vivo, Apera spica-venti. To be noted: for Plant response rating: Postemergence, Windgrass, scale 0 to 100; for Plant response rating, Windgrass: Preemergence, scale 0 to 100 (0 no effect, 100 complete control). The source says:
(§1) Seeds of plant species selected from bluegrass (annual bluegrass, Poa annua), blackgrass (Alopecurus myosuroides), canarygrass (littleseed canarygrass, Phalaris minor), chickweed (common chickweed, Stellaria media), galium (catchweed bedstraw, Galium aparine), bromegrass, downy (downy bromegrass, Bromus tectorum), field poppy (Papaver rhoeas), field violet (Viola arvensis), foxtail, green (green foxtail, Setaria viridis), deadnettle (henbit deadnettle, Lamium amplexicaule), ryegrass, Italian (Italian ryegrass, Lolium multiflorum), kochia (Kochia scoparia), lambsquarters (Chenopodium album), oilseed rape (Brassica napus), pigweed (Amaranthus retroflexus), chamomile (scentless chamomile, Matricaria inodora), Russian thistle (Salsola kali), speedwell (bird's-eye speedwell, Veronica persica), barley, spring (spring barley, Hordeum vulgare), wheat, spring (spring wheat, Triticum aestivum), buckwheat, wild (wild buckwheat, Polygonum convolvulus), mustard, wild (wild mustard, Sinapis arvensis), oat, wild (wild oat, Avena fatua), radish, wild (wild radish, Raphanus raphanistrum), […]), barley, winter (winter barley, Hordeum vulgare), and wheat, winter (winter wheat, Triticum aestivum) were planted into a silt loam soil and treated preemergence with test chemicals formulated in a non-phytotoxic solvent mixture which included a surfactant. At the same time, these species were planted in pots containing Redi-Earth® planting medium (Scotts Company, 14111 Scottslawn Road, Marysville, Ohio 43041) comprising spaghnum peat moss, vermiculite, wetting agent and starter nutrients and treated with postemergence applications of the test chemicals formulated in the same manner. Plants ranged in height from 2 to 18 cm (1- to 4-leaf stage). Treated plants and controls were maintained in a controlled growth environment for 7 to 21 days after which time all species were compared to controls and visually evaluated. Plant response ratings, summarized in Table D, are based on a scale of 0 to 100 where 0 is no effect and 100 is complete control. A dash (-) response means no test result.

The next experiment deals with oat, wild. Format: in vivo, Avena fatua. To be noted: for Plant response rating: Postemergence, Oat, Wild, scale 0 to 100; for Plant response rating, Oat, Wild: Preemergence, scale 0 to 100 (0 no effect, 100 complete control).
Description: as §1

The subject of the next experiment is lambsquarters. Format: in vivo, Chenopodium album. The conditions noted are these: for Plant response rating: Lambsquarters, scale 0 to 100; for Plant response rating, Lambsquarters: scale 0 to 100 (0 no effect, 100 complete control).
Description: as §1

`O=C1NCC(c2ccc(F)c(F)c2)C1C(=O)Nc1ccccc1C(F)(F)F` (racemic) [Compound 6]: the Plant response rating in the experiment with windgrass (16 g ai/ha) was 0; in the experiment on windgrass (31 g ai/ha), 0; with windgrass (62 g ai/ha), 0; in the experiment on windgrass (125 g ai/ha) it was 0; in the experiment with windgrass (250 g ai/ha) it was 0; in the experiment with oat, wild (16 g ai/ha), 0. Further, the Plant response rating stood at 0 with oat, wild (31 g ai/ha); 0 in the experiment on oat, wild (62 g ai/ha); 0 in the experiment on oat, wild (125 g ai/ha); 5 in the experiment with oat, wild (250 g ai/ha); 0 with lambsquarters (Postemergence, 16 g ai/ha); 10 in the experiment on lambsquarters (Postemergence, 31 g ai/ha). Moreover, the Plant response rating worked out at 20 with lambsquarters (Postemergence, 62 g ai/ha); 20 in the experiment with lambsquarters (Postemergence, 125 g ai/ha); 30 in the experiment on lambsquarters (Postemergence, 250 g ai/ha); 0 with lambsquarters (Preemergence, 125 g ai/ha); 0 in the experiment on lambsquarters (Preemergence, 250 g ai/ha). For the same compound, the “Plant response rating, Windgrass” value with windgrass (62 g ai/ha) was 0; in the experiment on windgrass (125 g ai/ha) it was 100; in the experiment on windgrass (16 g ai/ha) it was 0; in the experiment on windgrass (31 g ai/ha), 0; with windgrass (250 g ai/ha), 100. For the same compound, the “Plant response rating, Oat, Wild” value in the experiment with oat, wild (62 g ai/ha) is 0; in the experiment on oat, wild (125 g ai/ha), 0; in the experiment on oat, wild (16 g ai/ha) it was 0; with oat, wild (31 g ai/ha), 0; with oat, wild (250 g ai/ha), 0. Also, the “Plant response rating, Lambsquarters” value with lambsquarters (Preemergence, 62 g ai/ha) is 0; in the experiment with lambsquarters (Preemergence, 16 g ai/ha) it was 0; with lambsquarters (Preemergence, 31 g ai/ha) it was 0.

As for `O=C1NCC(c2ccc(F)c(C(F)(F)F)c2)C1C(=O)Nc1cccc(F)c1F` (racemic) [Compound 77], the “Plant response rating, Windgrass” value with windgrass (62 g ai/ha) was determined as 85; in the experiment on windgrass (125 g ai/ha) it was 90; in the experiment with windgrass (31 g ai/ha), 45; in the experiment on windgrass (250 g ai/ha), 95. For the same compound, the “Plant response rating, Oat, Wild” value is on record as 15 in the experiment on oat, wild (62 g ai/ha); 20 in the experiment with oat, wild (125 g ai/ha); 10 in the experiment with oat, wild (31 g ai/ha); 45 with oat, wild (250 g ai/ha). Further, the “Plant response rating, Lambsquarters” value in the experiment with lambsquarters (Preemergence, 62 g ai/ha) was 85; in the experiment on lambsquarters (Preemergence, 31 g ai/ha) it was 85. Moreover, the Plant response rating with lambsquarters (Preemergence, 125 g ai/ha) is given as 90; in the experiment with lambsquarters (Preemergence, 250 g ai/ha), 90.

Take `O=C1NCC(c2ccc(C(F)(F)F)cc2)C1C(=O)Nc1cccc(F)c1F` (racemic) [Compound 202]: the Plant response rating in the experiment with windgrass (31 g ai/ha) amounted to 0; with windgrass (62 g ai/ha), 10; in the experiment with windgrass (125 g ai/ha) it was 35; in the experiment with windgrass (250 g ai/ha), 45; in the experiment on oat, wild (31 g ai/ha), 5; in the experiment on oat, wild (62 g ai/ha) it was 10. For the same compound, the Plant response rating is 10 with oat, wild (125 g ai/ha); 15 in the experiment with oat, wild (250 g ai/ha); 65 in the experiment on lambsquarters (Postemergence, 31 g ai/ha); 60 in the experiment on lambsquarters (Postemergence, 62 g ai/ha); 70 in the experiment on lambsquarters (Postemergence, 125 g ai/ha); 75 with lambsquarters (Postemergence, 250 g ai/ha). For the same compound, the Plant response rating with lambsquarters (Preemergence, 125 g ai/ha) is reported as 85; with lambsquarters (Preemergence, 250 g ai/ha), 85. The “Plant response rating, Windgrass” value in the experiment with windgrass (62 g ai/ha) is recorded as 85; with windgrass (125 g ai/ha) it was 90; in the experiment with windgrass (31 g ai/ha), 65; in the experiment with windgrass (250 g ai/ha), 90. Besides, the “Plant response rating, Oat, Wild” value in the experiment with oat, wild (62 g ai/ha) turned out to be 20; in the experiment with oat, wild (125 g ai/ha), 35; with oat, wild (31 g ai/ha), 5; in the experiment with oat, wild (250 g ai/ha), 40. Moreover, the “Plant response rating, Lambsquarters” value with lambsquarters (Preemergence, 62 g ai/ha) was found to be 85; in the experiment with lambsquarters (Preemergence, 31 g ai/ha), 80.

Regarding `O=C1NCC(c2cc(F)c(F)cc2F)C1C(=O)Nc1cccc(F)c1F` (stereo not drawn) [Compound 50], the Plant response rating in the experiment on windgrass (16 g ai/ha) was found to be 0; in the experiment with windgrass (31 g ai/ha), 0; in the experiment on windgrass (62 g ai/ha), 0; in the experiment on windgrass (125 g ai/ha), 0; with oat, wild (16 g ai/ha), 0; with oat, wild (31 g ai/ha), 0. In addition, the Plant response rating is 0 with oat, wild (62 g ai/ha); 0 in the experiment with oat, wild (125 g ai/ha); 5 in the experiment with lambsquarters (Postemergence, 16 g ai/ha); 5 with lambsquarters (Postemergence, 31 g ai/ha); 5 with lambsquarters (Postemergence, 62 g ai/ha); 20 with lambsquarters (Postemergence, 125 g ai/ha). In addition, the Plant response rating in the experiment with lambsquarters (Preemergence, 125 g ai/ha) was 0. Moreover, the “Plant response rating, Windgrass” value with windgrass (62 g ai/ha) is listed as 5; with windgrass (125 g ai/ha), 0; with windgrass (16 g ai/ha) it was 0; in the experiment with windgrass (31 g ai/ha), 0. Also, the “Plant response rating, Oat, Wild” value in the experiment with oat, wild (62 g ai/ha) is 0; with oat, wild (125 g ai/ha), 0; with oat, wild (16 g ai/ha) it was 0; with oat, wild (31 g ai/ha), 0. In addition, the “Plant response rating, Lambsquarters” value is on record as 0 in the experiment with lambsquarters (Preemergence, 62 g ai/ha); 0 in the experiment on lambsquarters (Preemergence, 16 g ai/ha); 0 in the experiment on lambsquarters (Preemergence, 31 g ai/ha).

Consider `O=C1NCC(c2ccc(C(F)(F)F)cc2)C1C(=O)Nc1cccc(F)c1F` (stereo not drawn) [Compound 80, N-(2,3-difluorophenyl)-2-oxo-4-[4-(trifluoromethyl)phenyl]-3-pyrrolidinecarboxamide], for which the Plant response rating with windgrass (31 g ai/ha) was 0; in the experiment with windgrass (62 g ai/ha), 10; with windgrass (125 g ai/ha), 10; in the experiment with windgrass (250 g ai/ha), 25; with oat, wild (31 g ai/ha) it was 10; in the experiment with oat, wild (62 g ai/ha), 10. Besides, the Plant response rating with oat, wild (125 g ai/ha) came out at 5; in the experiment with oat, wild (250 g ai/ha), 10; with lambsquarters (Postemergence, 31 g ai/ha), 45; with lambsquarters (Postemergence, 62 g ai/ha), 45; with lambsquarters (Postemergence, 125 g ai/ha) it was 40; in the experiment with lambsquarters (Postemergence, 250 g ai/ha), 35. For the same compound, the Plant response rating was 90 with lambsquarters (Preemergence, 125 g ai/ha) and 90 in the experiment on lambsquarters (Preemergence, 250 g ai/ha). The “Plant response rating, Windgrass” value was determined as 20 with windgrass (62 g ai/ha), 75 in the experiment on windgrass (125 g ai/ha), 5 with windgrass (31 g ai/ha) and 90 in the experiment with windgrass (250 g ai/ha). For the same compound, the “Plant response rating, Oat, Wild” value in the experiment with oat, wild (62 g ai/ha) is on record as 5; with oat, wild (125 g ai/ha), 10; with oat, wild (31 g ai/ha), 0; with oat, wild (250 g ai/ha), 20. The “Plant response rating, Lambsquarters” value with lambsquarters (Preemergence, 62 g ai/ha) turned out to be 80; in the experiment with lambsquarters (Preemergence, 31 g ai/ha) it was 85.

For `O=C1NCC(c2ccc(C(F)(F)F)cc2)C1C(=O)Nc1ccccc1F` (stereo not drawn) [Compound 231], the Plant response rating with windgrass (31 g ai/ha) came out at 0; in the experiment on windgrass (62 g ai/ha), 5; in the experiment with windgrass (125 g ai/ha) it was 0; in the experiment with windgrass (250 g ai/ha) it was 15; with oat, wild (31 g ai/ha), 5; in the experiment with oat, wild (62 g ai/ha) it was 10. Besides, the Plant response rating in the experiment with oat, wild (125 g ai/ha) came out at 10; in the experiment on oat, wild (250 g ai/ha) it was 10; with lambsquarters (Postemergence, 31 g ai/ha), 55; in the experiment on lambsquarters (Postemergence, 62 g ai/ha), 50; in the experiment on lambsquarters (Postemergence, 125 g ai/ha) it was 70; with lambsquarters (Postemergence, 250 g ai/ha), 75. Moreover, in the experiment on lambsquarters (Preemergence, 250 g ai/ha), the Plant response rating amounted to 90. Also, the “Plant response rating, Windgrass” value with windgrass (62 g ai/ha) is listed as 70; with windgrass (125 g ai/ha), 75; with windgrass (31 g ai/ha), 55; in the experiment on windgrass (250 g ai/ha), 85. In addition, the “Plant response rating, Oat, Wild” value in the experiment on oat, wild (62 g ai/ha) was 20; in the experiment on oat, wild (125 g ai/ha), 25; in the experiment on oat, wild (31 g ai/ha), 20; with oat, wild (250 g ai/ha) it was 30. Moreover, the “Plant response rating, Lambsquarters” value in the experiment with lambsquarters (Preemergence, 62 g ai/ha) is on record as 80; in the experiment with lambsquarters (Preemergence, 125 g ai/ha), 90; with lambsquarters (Preemergence, 31 g ai/ha), 45.
